In patent EP0206858A1, “Process for the synthesis of macromolecular derivatives of nicotinamide adenine” (SOCIETE NATIONALE ELF AQUITAINE, priority 1985, dated 1986):

Experiments:
L-lactate déshydrogénase = assay: Initial rate of oxidation of the reduced forms with L-lactate dehydrogenase (Example 7); assay type: biochemical; conditions: reduced forms after Na2S2O4 treatment; coenzyme 0,17 mM, Tris HCl 50 mM, 16 mM sodium pyruvate, 17 mU L-lactate dehydrogenase; NADH = 100
Experimental: Ces mêmes produits, mais sous forme réduite après traitement au Na2S2O4, sont soumis à un essai de mesure de la vitesse initiale d'oxydation avec l'enzyme L-lactate déshydrogénase.
Cette mesure s'effectue sur un milieu réactionnel de 0,5 ml contenant le coenzyme 0,17 mM (exprimé comme dans l'exemple 6) le même tampon 50 mM, 16 mM en pyruvate de sodium et 17 mU de L-lactate déshydrogènase à 700 U/mg. A titre comparatif la même mesure est effectuée sur NADH et le dérivé de formule 4 réduit.

hydrogénase = assay: Initial rate of reduction with a hydrogenase (Example 6); assay type: biochemical; conditions: coenzyme 0,17 mM expressed as bound NAD+, Tris HCl pH8,0 50 mM, hydrogen at saturation, 29 mU hydrogenase; NAD+ = 100
Experimental: Les produits A à E préparés selon les procédés décrits dans les exemples 1 à 5 précédents sont soumis à un essai de mesure de la vitesse initale de réduction avec une hydrogénase.
Cette mesure s'effectue sur un milieu réactionnel de 0,28 ml contenant le coenzyme 0,17 mM, exprimé en NAD^+ lié pour les dérivés du NAD^+, 50 mM en tampon pH8,0 Tris HCl, de l'hydrogène à saturation et 29 mU d'enzyme hy- drogènase à 21 U/mg.
A titre comparatif la même mesure est effectuée sur le noyau NAD^+ et sur les dérivés substitués de formules (4) et (5).

Structure (SMILES) | Taux initial de réduction (%) (hydrogénase) | Taux initial d'oxydation (%) (L-lactate déshydrogénase)
NCCCCCCNc1nc2c(N)ncnc2n1[C@@H]1O[C@H](COP(=O)(O)OP(=O)(O)OC[C@H]2O[C@@H](N3C=CCC(C(N)=O)=C3)[C@H](O)[C@@H]2O)[C@@H](O)[C@H]1O [Dérivé (4) réduit] | – | 62,5%
NC(=O)C1=CN([C@@H]2O[C@H](COP(=O)(O)OP(=O)(O)OC[C@H]3O[C@@H](n4cnc5c(N)ncnc54)[C@H](O)[C@@H]3O)[C@@H](O)[C@H]2O)C=CC1 [NADH, nicotinamide adénine dinucléotide] | – | 100%

Continued, in another order:

Taux initial de réduction (%) (hydrogénase) | Structure (SMILES) | Taux initial d'oxydation (%) (L-lactate déshydrogénase)
50 | NCCCCCCNc1nc2c(N)ncnc2n1[C@@H]1O[C@H](COP(=O)(O)OP(=O)([O-])OC[C@H]2O[C@@H]([n+]3cccc(C(N)=O)c3)[C@H](O)[C@@H]2O)[C@@H](O)[C@H]1O [Dérivé (4), C^8-(6-aminohexyl)-amino-NAD^+] | –
90 | NCCNc1ncnc2c1ncn2[C@@H]1O[C@H](COP(=O)(O)OP(=O)([O-])OC[C@H]2O[C@@H]([n+]3cccc(C(N)=O)c3)[C@H](O)[C@@H]2O)[C@@H](O)[C@H]1O [Dérivé (5), N^6-(2-aminoéthyl)-NAD^+] | –
100 | NC(=O)c1ccc[n+]([C@@H]2O[C@H](COP(=O)([O-])OP(=O)(O)OC[C@H]3O[C@@H](n4cnc5c(N)ncnc54)[C@H](O)[C@@H]3O)[C@@H](O)[C@H]2O)c1 [NAD^+] | –
